pIC50: −log10 of the molar value. *1 amine or outer side, *2 acyl side, *3 side chain or, on linkers, in order; H or OH if unused. Where a SMILES comes first, the peptide text is derived from it. Bridges are numbered along the chain shown (N, C = ends). [ ]: non-standard residue; d: D form. X23 = O=C(CCCCCc1cccnc1)N[C@@H](CCN[*:2])C(=O)[*:1]; Trp(1-Me) = Cn1cc(C[C@H](N)C(=O)O)c2ccccc21; X17 = O=C(C[C@@H](CCCN[*:3])N[*:2])[*:1]; Phe(4-Me) = Cc1ccc(C[C@H](N)C(=O)O)cc1; 2Nal = N[C@@H](Cc1ccc2ccccc2c1)C(=O)O; AEF = NCCOc1ccc(C[C@H](N)C(=O)O)cc1; 3Pal = N[C@@H](Cc1cccnc1)C(=O)O; αMeL = CC(C)C[C@](C)(N)C(=O)O; dOrn = NCCC[C@@H](N)C(=O)O; Dab = NCC[C@H](N)C(=O)O; βAla = NCCC(=O)O
Target: T1, human IL-23R (Homo sapiens, UniProt Q5VWK5)
T1 sequence (Q5VWK5 22-629): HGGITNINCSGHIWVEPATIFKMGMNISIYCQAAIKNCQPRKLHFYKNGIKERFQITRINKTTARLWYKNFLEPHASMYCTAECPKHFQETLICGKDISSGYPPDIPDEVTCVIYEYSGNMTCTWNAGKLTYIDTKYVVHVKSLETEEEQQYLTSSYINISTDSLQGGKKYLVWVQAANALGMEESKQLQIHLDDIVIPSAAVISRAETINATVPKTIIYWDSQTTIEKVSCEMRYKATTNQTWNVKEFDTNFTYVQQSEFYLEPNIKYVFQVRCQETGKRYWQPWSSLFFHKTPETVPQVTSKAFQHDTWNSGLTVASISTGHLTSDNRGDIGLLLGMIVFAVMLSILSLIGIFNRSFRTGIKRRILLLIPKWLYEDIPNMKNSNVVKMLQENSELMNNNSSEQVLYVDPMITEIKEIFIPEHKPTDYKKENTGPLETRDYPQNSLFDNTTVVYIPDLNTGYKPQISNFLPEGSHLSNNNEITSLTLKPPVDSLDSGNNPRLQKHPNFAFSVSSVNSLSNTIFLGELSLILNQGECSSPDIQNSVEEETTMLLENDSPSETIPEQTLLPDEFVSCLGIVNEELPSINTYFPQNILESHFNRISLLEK
Assay: biochemical
Settings: for Emax: read-out: % displacement (hIL-23R NIuc)
How it was run: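 Membranes from HEK293 cells stably expressing Nluc-tagged human IL-23R were incubated 2 h at room temperature with test compound and a fluorophore-labelled tracer. After substrate addition, loss of BRET (TAMRA over luciferase emission) reported tracer displacement. A 4PL fit gave IC50 values.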

Row | Compound | pIC50 | Emax [%] | % displacement (hIL-23R NIuc) [%]
1 | COc1ccc(C[C@@H]2NC(=O)[C@@H]3CCC(=O)N[C@@H](CCCCNC(=O)CC[C@@H](C(=O)N[C@@H](CCCCNC(=O)Cc4ccccn4)C(N)=O)NC(=O)[C@](C)(CC(C)C)NC(=O)[C@H](Cc4ccc5ccccc5c4)NC2=O)C(=O)N[C@@H]([C@@H](C)O)C(=O)N[C@@H](C(C)C)C(=O)N[C@@H](Cc2c[nH]c4ccccc24)C(=O)N[C@@H](CCC(N)=O)C(=O)N3)cc1 [Compound 48, K(1c)(6c)^†TVWQE(6c)[Y(Me)][2-Nal][2-Me-Leu]E(1c)[K(2-pyridylacetyl)]-[NH2]] | 6.54 | 101 | –
2 | COc1ccc(C[C@@H]2NC(=O)[C@@H]3CCC(=O)N[C@@H](CCCCNC(=O)CC[C@@H](C(=O)N[C@@H](CCCCNC(=O)Cc4ccncc4)C(N)=O)NC(=O)[C@](C)(CC(C)C)NC(=O)[C@H](Cc4ccc5ccccc5c4)NC2=O)C(=O)N[C@@H]([C@@H](C)O)C(=O)N[C@@H](C(C)C)C(=O)N[C@@H](Cc2c[nH]c4ccccc24)C(=O)N[C@@H](CCC(N)=O)C(=O)N3)cc1 [Compound 54, K(1c)(6c)^†TVWQE(6c)[Y(Me)][2-Nal][2-Me-Leu]E(1c)[K(4-pyridylacetyl)]-[NH2]] | 6.54 | 105 | –
3 | Cc1ccc(C[C@@H]2NC(=O)[C@@H]3CCC(=O)N[C@@H](CCCCNC(=O)[C@@H](NC(=O)CCCCCc4cccnc4)CCNC(=O)[C@](C)(CC(C)C)NC(=O)[C@H](Cc4ccc5ccccc5c4)NC2=O)C(=O)N[C@@H]([C@@H](C)O)C(=O)N[C@@H](C(C)C)C(=O)N[C@@H](Cc2c[nH]c4ccccc24)C(=O)N[C@@H](CCC(N)=O)C(=O)N3)cc1 [Compound 25, K(1c)(6c)^†TVWQE(6c)[Y(2-aminoethoxy)][2-Nal][2-Me-Leu][iso-Dab](1c)^‡-[6-(3-pyridyl)hexanoyl]] (KTVWQE[Phe(4-Me)][2Nal][αMeL]; linker 1-C via X23; lactam N-6) | – | 91 | –
4 | CNC(=O)[C@H](Cc1cccnc1)NC(=O)[C@H](CCN)NC(=O)[C@@H]1CCC(=O)NCCCC[C@H]2C(=O)N[C@@H]([C@@H](C)O)C(=O)N[C@@H](Cc3c[nH]c4ccccc34)C(=O)N[C@@H](CCC(N)=O)C(=O)N[C@@H](Cc3cn2nn3)C(=O)N[C@@H](Cc2ccc(OCCN)cc2)C(=O)N[C@@H](Cc2ccc3ccccc3c2)C(=O)N[C@@](C)(CC(C)C)C(=O)N1 [Compound 41, [(N3)-K](1c)(6g)^†TWQ[Pra](6g)[Y(2-aminoethoxy)][2-Nal][2-Me-Leu]E(1c)[Dab][3-(3-Pyridyl)-Ala]-[NHMe]] | 8.82 | 98 | –
5 | COc1ccc(C[C@@H]2NC(=O)[C@@H]3CCC(=O)N[C@@H](CCCCNC(=O)CC[C@@H](C(=O)N[C@@H](CCCCNC(=O)CCc4ncc[nH]4)C(N)=O)NC(=O)[C@](C)(CC(C)C)NC(=O)[C@H](Cc4ccc5ccccc5c4)NC2=O)C(=O)N[C@@H]([C@@H](C)O)C(=O)N[C@@H](C(C)C)C(=O)N[C@@H](Cc2c[nH]c4ccccc24)C(=O)N[C@@H](CCC(N)=O)C(=O)N3)cc1 [Compound 59, K(1c)(6c)^†TVWQE(6c)[Y(Me)][2-Nal][2-Me-Leu]E(1c)[K(Imidazolepropanoyl)]-[NH2]] | 6.48 | – | –
6 | CC[C@H](C)[C@@H]1NC(=O)[C@@H]2CCCCNC(=O)CC[C@@H](C(=O)N[C@@H](CCN)C(=O)NCCCc3cccnc3)NC(=O)[C@](C)(CC(C)C)NC(=O)[C@H](Cc3ccc4ccccc4c3)NC(=O)[C@H](Cc3ccc(OCCN)cc3)NC(=O)[C@H](CCC(=O)N2)NC(=O)[C@H](CCC(N)=O)NC(=O)[C@H](Cc2c[nH]c3ccccc23)NC(=O)[C@H](C(C)C)NC1=O [Compound 67, K(1c)(6c)^†IVWQE(6c)[Y(2-aminoethoxy)][2-Nal][2-Me-Leu]E(1c)[Dab]-[NH-3-(pyridin-3-yl)propyl]] | 8.59 | 102 | –
7 | CNC(=O)[C@H](Cc1cccnc1)NC(=O)[C@H](CCN)NC(=O)[C@@H]1CCC(=O)NCCCC[C@@H]2NC(=O)CC[C@H](NC(=O)[C@H](CCC(N)=O)NC(=O)[C@H](Cc3c[nH]c4ccccc34)NC(=O)CCNC2=O)C(=O)N[C@@H](CC2CC2)C(=O)N[C@@H](Cc2ccc3ccccc3c2)C(=O)N[C@@](C)(CC(C)C)C(=O)N1 [Compound 82, K(1c)(6c)^†[3-Aminopropanoyl]WQE(6c)[Cyclopropyl-Ala][2-Nal][2-Me-Leu]E(1c)[Dab][3-(3-Pyridyl)-Ala]-[NHMe]] | 8.43 | 101 | –

Further molecules by rising pIC50, results first:

Row | pIC50 | Emax [%] | % displacement (hIL-23R NIuc) [%] | Compound
8 | 8.85 | – | 101 | CC(C)C[C@]1(C)NC(=O)[C@H](Cc2ccc3ccccc3c2)NC(=O)[C@H](Cc2ccc(OCCN)cc2)NC(=O)[C@@H]2CC(=O)N[C@H](CCCNC(=O)CC[C@@H](C(=O)N[C@@H](CCN)C(=O)N[C@@H](Cc3cccnc3)C(N)=O)NC1=O)CC(=O)N[C@@H]([C@@H](C)O)C(=O)N[C@@H](Cc1c[nH]c3ccccc13)C(=O)N[C@@H](CCC(N)=O)C(=O)N2 [Compound 13, [{d}bLys](1c)(6c)^†TWQD(6c)[Y(2-aminoethoxy)][2-Nal][2-Me-Leu]E(1c)[Dab][3-(3-Pyridyl)-Ala]-[NH2]] (TWQD[AEF][2Nal][αMeL]E[Dab][3Pal]-NH2; linker N-4-8 via X17)
9 | 9.17 | 107 | – | CC(C)C[C@]1(C)NC(=O)[C@H](Cc2ccc3ccccc3c2)NC(=O)[C@H](Cc2ccc(OCCN)cc2)NC(=O)[C@@H]2CC(=O)N[C@H](CCCNC(=O)CC[C@@H](C(=O)N[C@@H](CCN)C(=O)N[C@@H](Cc3cccnc3)C(N)=O)NC1=O)C(=O)N[C@@H]([C@@H](C)O)C(=O)N[C@@H](C(C)C)C(=O)N[C@@H](Cc1c[nH]c3ccccc13)C(=O)N[C@@H](CCC(N)=O)C(=O)N2 [Compound 10, [{d}Orn](1c)(6c)^†TVWQD(6c)[Y(2-aminoethoxy)][2-Nal][2-Me-Leu]E(1c)[Dab][3-(3-Pyridyl)-Ala]-[NH2]] ([dOrn]TVWQD[AEF][2Nal][αMeL]E[Dab][3Pal]-NH2; lactam 1-10, N-6)
10 | 10.40 | 100 | – | CNC(=O)[C@H](Cc1cccnc1)NC(=O)[C@H](Cc1ccncc1)NC(=O)[C@@H]1CCC(=O)NCCCC[C@@H]2NC(=O)CC[C@H](NC(=O)[C@H](CCC(N)=O)NC(=O)[C@H](Cc3c[nH]c4ccccc34)NC(=O)CCNC2=O)C(=O)N[C@@H](Cc2ccc(OCCN)cc2)C(=O)N[C@@H](Cc2ccc3ccccc3c2)C(=O)N[C@@](C)(CC(C)C)C(=O)N1 [Compound 89, K(1c)(6c)^†[3-Aminopropanoyl]WQE(6c)[Y(2-aminoethoxy)][2-Nal][2-Me-Leu]E(1 c)[3-(4-Pyridyl)-Ala][3-(3-Pyridyl)-Ala]-[NHMe]]
11 | 10.70 | 100 | – | CNC(=O)[C@H](Cc1cccnc1)NC(=O)[C@H](CCN)NC(=O)[C@@H]1CCC(=O)NCCCC[C@@H]2NC(=O)CC[C@H](NC(=O)[C@H](CCC(N)=O)NC(=O)[C@H](Cc3cn(C)c4ccccc34)NC(=O)CCNC2=O)C(=O)N[C@@H](Cc2ccc(OCCN)cc2)C(=O)N[C@@H](Cc2ccc3ccccc3c2)C(=O)N[C@@](C)(CC(C)C)C(=O)N1 [Compound 79, K(1c)(6c)^†[3-Aminopropanoyl][1-Me-Trp]QE(6c)[Y(2-aminoethoxy)][2-Nal][2-Me-Leu]E(1c)[Dab][3-(3-Pyridyl)-Ala]-[NHMe]] (K[βAla][Trp(1-Me)]QE[AEF][2Nal][αMeL]E[Dab][3Pal]-NHMe; lactam 1-9, N-5)

Source: patent EP4471048A1, “PEPTIDE INHIBITORS OF INTERLEUKIN-23 RECEPTOR” (Zealand Pharma A/S, priority 2023, dated 2024)
